Test system: 266295-075-R-J1-PDC spheroid viability
Experiment: Anticancer human tumor 266295-075-R-J1-PDC patient-derived head and neck squamous carcinoma cell line growth inhibition [POLQ]
Settings: spheroids with HUVEC and MSC; for IC50: curve of first compound; for viability, T/C: stronger effect = lower value
Summary of the method: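 Growth inhibition in 3D: complex spheroids (tumor PDC, HUVEC, MSC) treated with POLQ inhibitor combinations; where Cmax unknown, highest tested concentration 10 microM, except SN-38 at 1 microM.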
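Also: spheroids exposed to compounds for seven days before readout.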

`C=CC(=O)N1CCN(c2nc(=O)n(-c3c(C)ccnc3C(C)C)c3nc(-c4c(O)cccc4F)c(F)cc23)C(C)C1` (configuration not stated) + Nc1ccc(C#CCN(C(=O)Cc2ncc(C(F)(F)F)cc2C(F)(F)F)c2ccc(F)cc2)nn1 was tested, and the IC50 (second compound 0.0316 µM) was over 10 µM, the IC50 (second compound 0.1 µM) was over 10 µM and the IC50 (second compound 0.316 µM) was over 10 µM. For the same compound, the IC50 (second compound 1 µM) was over 10 µM, the IC50 (second compound 3.16 µM) was over 10 µM and the IC50 (second compound 10 µM) was over 10 µM. It also gave a viability, T/C (second compound 0.0316 µM, first compound 0.0316 µM) of 108%, a viability, T/C (second compound 0.0316 µM, first compound 0.1 µM) of 96.4% and a viability, T/C (second compound 0.0316 µM, first compound 0.316 µM) of 101%. It also gave a viability, T/C (second compound 0.0316 µM, first compound 1 µM) of 96.8%, a viability, T/C (second compound 0.0316 µM, first compound 3.16 µM) of 112% and a viability, T/C (second compound 0.0316 µM, first compound 10 µM) of 107%. For the same compound, the viability, T/C (second compound 0.1 µM, first compound 0.0316 µM) was 96%, the viability, T/C (second compound 0.1 µM, first compound 0.1 µM) was 106% and the viability, T/C (second compound 0.1 µM, first compound 0.316 µM) was 100%. For the same compound, the viability, T/C (second compound 0.1 µM, first compound 1 µM) was 111%, the viability, T/C (second compound 0.1 µM, first compound 3.16 µM) was 108% and the viability, T/C (second compound 0.1 µM, first compound 10 µM) was 112%. It also gave a viability, T/C (second compound 0.316 µM, first compound 0.0316 µM) of 89.8%, a viability, T/C (second compound 0.316 µM, first compound 0.1 µM) of 107% and a viability, T/C (second compound 0.316 µM, first compound 0.316 µM) of 90.6%. The viability, T/C (second compound 0.316 µM, first compound 1 µM) was 107%, the viability, T/C (second compound 0.316 µM, first compound 3.16 µM) was 145% and the viability, T/C (second compound 0.316 µM, first compound 10 µM) was 125%. It also gave a viability, T/C (second compound 1 µM, first compound 0.0316 µM) of 101%, a viability, T/C (second compound 1 µM, first compound 0.1 µM) of 95.5% and a viability, T/C (second compound 1 µM, first compound 0.316 µM) of 133%. It also gave a viability, T/C (second compound 1 µM, first compound 1 µM) of 101%, a viability, T/C (second compound 1 µM, first compound 3.16 µM) of 124% and a viability, T/C (second compound 1 µM, first compound 10 µM) of 73.9%. The viability, T/C (second compound 3.16 µM, first compound 0.0316 µM) was 98.4%, the viability, T/C (second compound 3.16 µM, first compound 0.1 µM) was 93.8% and the viability, T/C (second compound 3.16 µM, first compound 0.316 µM) was 94.2%. The viability, T/C (second compound 3.16 µM, first compound 1 µM) was 108%, the viability, T/C (second compound 3.16 µM, first compound 3.16 µM) was 117% and the viability, T/C (second compound 3.16 µM, first compound 10 µM) was 103%. It also gave a viability, T/C (second compound 10 µM, first compound 0.0316 µM) of 106%, a viability, T/C (second compound 10 µM, first compound 0.1 µM) of 72.8% and a viability, T/C (second compound 10 µM, first compound 0.316 µM) of 92.3%. It also gave a viability, T/C (second compound 10 µM, first compound 1 µM) of 106%, a viability, T/C (second compound 10 µM, first compound 3.16 µM) of 105% and a viability, T/C (second compound 10 µM, first compound 10 µM) of 108%.

From PubChem BioAssay AID1963853 (Molecular Pharmacology Branch, DTP, NCI, 2024)
